# Target: B-Raf (V600E)-kinase (Homo sapiens (Human), UniProt P15056, V600E)
# Assay: Kinase test B-Raf (V600E)
# Type: biochemical
# Conditions: 250 μM ATP, biotinylated MEK1 substrate
# Procedure: Kinase test B-Raf (V600E)
# In a dilution series 10 μL/well of test substance solution are placed in a multiwell plate. The dilution series is selected so that generally a range of concentrations of 2 μM to 0.119 nM or 0.017 nM is covered. If necessary the initial concentration of 2 μM is changed to 50 μM, 10 μM, 0.4 μM or 0.2857 μM and further dilution is carried out accordingly. The final concentration of DMSO is 5%. 10 μL/well of the B-Raf (V600E)-kinase solution are pipetted in (containing 0.5 ng B-Raf (V600E)-kinase, e.g. from Upstate) in 20 mM Tris-HCl pH 7.5, 0.1 mM EDTA, 0.1 mM EGTA, 0.286 mM sodium orthovanadate, 10% glycerol, 1 mg/mL bovine serum albumin, 1 mM dithiothreitol) and the mixture is incubated for 1 h at RT with shaking. The kinase reaction is started by the addition of 20 μL/well ATP solution [final concentration: 250 μM ATP, 30 mM Tris-HCl pH 7.5, 0.02% Brij, 0.2 mM sodium orthovanadate, 10 mM magnesium acetate, 0.1 mM EGTA, phosphatase cocktail (Sigma, #P2850, dilution recommended by the manufacturer)] and 10 μL/well MEK1 solution [containing 50 ng biotinylated MEK1 (prepared from purified MEK1 according to standard procedure, e.g. with EZ-Link Sulpho-NHS-LC-Biotin reagent, Pierce, #21335)] and carried out for 60 min at RT with constant shaking. The reaction is stopped by the addition of 12 μL/well of a 100 mM EDTA solution and incubation is continued for a further 5 min. 55 μL/well of the reaction solution are transferred into a streptavidin-coated plate (e.g. Streptawell HighBond, Roche, #11989685001) and gently shaken for 1 h at RT in order to bind biotinylated MEK1 to the plate. After elimination of the liquid the plate is washed five times with 200 μL/well of 1×PBS and 100 μL/well solution of primary antibody plus europium-labelled secondary antibody [Anti Phospho-MEK (Ser217/221), Cell Signaling, #9121 and Eu—N1 labelled goat-anti-rabbit antibody, Perkin Elmer, #AD0105] is added, the primary antibody is diluted 1:2000 and the secondary antibody is diluted to 0.4-0.5 μg/mL in Delfia Assay Buffer (Perkin Elmer, #1244-111). After 1 h shaking at RT the solution is poured away and washed five times with 200 μL/well Delfia Wash Buffer (Perkin Elmer, #4010-0010/#1244-114). After the addition of 200 μL/well Enhancement Solution (Perkin Elmer, #4001-0010/#1244-105) the mixture is shaken for 10 min at RT and then measured in a Wallac Victor using the program “Delfia Time Resolved Fluorescence (Europium)”. IC50 values are obtained from these dosage-activity curves using a software program (GraphPadPrizm).
# B-Raf (V600E)-kinase, sequence (P15056 whole entry V600E): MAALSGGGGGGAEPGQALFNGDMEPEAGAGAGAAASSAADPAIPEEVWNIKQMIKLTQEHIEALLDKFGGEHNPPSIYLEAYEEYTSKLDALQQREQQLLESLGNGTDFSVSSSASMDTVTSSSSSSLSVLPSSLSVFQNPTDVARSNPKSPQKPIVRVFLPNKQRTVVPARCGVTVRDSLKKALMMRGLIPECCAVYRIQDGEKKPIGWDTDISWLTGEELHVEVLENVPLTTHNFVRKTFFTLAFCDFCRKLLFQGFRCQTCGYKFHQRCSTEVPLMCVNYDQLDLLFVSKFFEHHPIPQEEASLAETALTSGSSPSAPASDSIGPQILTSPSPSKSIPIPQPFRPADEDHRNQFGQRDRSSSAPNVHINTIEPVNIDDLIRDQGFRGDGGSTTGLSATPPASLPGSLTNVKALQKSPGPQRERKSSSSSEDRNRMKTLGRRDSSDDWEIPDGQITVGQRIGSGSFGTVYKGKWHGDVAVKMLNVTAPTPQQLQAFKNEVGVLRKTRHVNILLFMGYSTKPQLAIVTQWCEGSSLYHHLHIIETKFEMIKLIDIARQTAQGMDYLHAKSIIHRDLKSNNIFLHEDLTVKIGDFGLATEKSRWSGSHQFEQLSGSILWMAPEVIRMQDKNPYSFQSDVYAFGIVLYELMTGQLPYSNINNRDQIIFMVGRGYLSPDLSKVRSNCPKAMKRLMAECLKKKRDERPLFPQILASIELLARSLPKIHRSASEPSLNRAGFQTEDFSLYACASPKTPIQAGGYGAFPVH
row,SMILES,IC50
1,CCCS(=O)(=O)Nc1ccc(F)c(-n2cc(-c3cncc(OC)c3)c3nc(N4CCN(C)CC4)ccc32)c1F [I-3],0.297 µM
2,CCCS(=O)(=O)Nc1ccc(F)c(-n2cc(-c3cncc(OC)c3)c3nc(N4CCN(CCOC)CC4)ccc32)c1F [I-4],0.125 µM
3,CCCS(=O)(=O)Nc1ccc(F)c(-n2cc(-c3cncc(OC)c3)c3nc(N(C)C4CCN(C)CC4)cnc32)c1F [I-5],0.016 µM
4,CCCS(=O)(=O)Nc1ccc(F)c(-n2cc(-c3cncc(OC)c3)c3nc(N4CCN(C)CC4)ncc32)c1F [I-6],1.61 µM
5,CCCS(=O)(=O)Nc1ccc(F)c(-n2cc(-c3cncc(OC)c3)c3nc(N(C)C4CCN(C)CC4)ncc32)c1F [I-7],0.007 µM
6,CCCS(=O)(=O)Nc1ccc(F)c(-n2cc(-c3cncnc3)c3nc(N(C)C4CCN(C)CC4)ncc32)c1F [I-8],0.004 µM
7,CCCS(=O)(=O)Nc1ccc(F)c(-n2cc(-c3cncnc3)c3nc(N(C)C4CCN(CC)CC4)ncc32)c1F [I-9],0.016 µM
8,CCCS(=O)(=O)Nc1ccc(F)c(-n2cc(-c3cncnc3)c3nc(N(C)C4CCN(C5CC5)CC4)ncc32)c1F [I-10],0.029 µM
9,CCCS(=O)(=O)Nc1ccc(F)c(-n2cc(-c3cncnc3)c3nc(N(C)C4CCN(CCOC)CC4)ncc32)c1F [I-11],0.042 µM
10,CCCS(=O)(=O)Nc1ccc(F)c(-n2cc(-c3cncnc3)c3nc(N(C)C4CCNCC4)ncc32)c1F [I-12],0.041 µM

# Test system: SK-MEL-28 cells
# Assay: Inhibition of the proliferation of cultivated human melanoma cells (SK-MEL-28, B-RAF V600E mutated)
# Type: cell-based
# Conditions: 72 h incubation, AlamarBlue
# Procedure: Measurement of the Inhibition of the Proliferation of Cultivated Human Melanoma cells (SK-MEL-28, B-RAF^V600E Mutated)
# SK-MEL-28 cells are placed in 96-well flat bottomed dishes in a density of 2500 cells per well in supplemented MEM medium (see above) and incubated overnight in an incubator (at 37° C. and 5% CO2). […] After an incubation period of a further 72 h 20 μL AlamarBlue reagent (Serotec Ltd., #BUF012B) are added to each well and the cells are incubated for a further 3-6 h. The colour change of the AlamarBlue reagent is determined in a fluorescence spectrophotometer (e.g. Gemini, Molecular Devices). EC50 values are calculated using a software program (GraphPadPrizm).
row,SMILES,EC50
1,CCCS(=O)(=O)Nc1ccc(F)c(-n2cc(-c3cncc(OC)c3)c3nc(N4CCN(C)CC4)ccc32)c1F [I-3],0.114 µM
2,CCCS(=O)(=O)Nc1ccc(F)c(-n2cc(-c3cncc(OC)c3)c3nc(N4CCN(CCOC)CC4)ccc32)c1F [I-4],0.063 µM
3,CCCS(=O)(=O)Nc1ccc(F)c(-n2cc(-c3cncc(OC)c3)c3nc(N(C)C4CCN(C)CC4)cnc32)c1F [I-5],0.041 µM
4,CCCS(=O)(=O)Nc1ccc(F)c(-n2cc(-c3cncc(OC)c3)c3nc(N4CCN(C)CC4)ncc32)c1F [I-6],0.121 µM
5,CCCS(=O)(=O)Nc1ccc(F)c(-n2cc(-c3cncc(OC)c3)c3nc(N(C)C4CCN(C)CC4)ncc32)c1F [I-7],0.04 µM
6,CCCS(=O)(=O)Nc1ccc(F)c(-n2cc(-c3cncnc3)c3nc(N(C)C4CCN(C)CC4)ncc32)c1F [I-8],0.006 µM
7,CCCS(=O)(=O)Nc1ccc(F)c(-n2cc(-c3cncnc3)c3nc(N(C)C4CCN(CC)CC4)ncc32)c1F [I-9],0.011 µM
8,CCCS(=O)(=O)Nc1ccc(F)c(-n2cc(-c3cncnc3)c3nc(N(C)C4CCN(CCOC)CC4)ncc32)c1F [I-11],0.021 µM
9,CCCS(=O)(=O)Nc1ccc(F)c(-n2cc(-c3cncnc3)c3nc(N(C)C4CCNCC4)ncc32)c1F [I-12],0.06 µM
10,CCCS(=O)(=O)Nc1ccc(F)c(-n2cc(-c3cncnc3)c3nc(N(C)C4CCN(C(=O)OC(C)(C)C)CC4)ccc32)c1F [I-13],0.086 µM
11,CCCS(=O)(=O)Nc1ccc(F)c(-n2cc(-c3cncnc3)c3nc(N(C)C4CCNCC4)ccc32)c1F [I-14],0.006 µM
12,O=S(=O)(CC1CCCO1)Nc1ccc(F)c(-n2cc(-c3cncnc3)c3nc(N4CCNCC4)ccc32)c1F (stereo not drawn) [I-15],0.181 µM
13,CCN1CCN(c2ccc3c(n2)c(-c2cncnc2)cn3-c2c(F)ccc(NS(=O)(=O)CC3CCCO3)c2F)CC1 (stereo not drawn) [I-16],0.491 µM
14,CN1CCN(c2ccc3c(n2)c(-c2cncnc2)cn3-c2c(F)ccc(NS(=O)(=O)CC3CCCO3)c2F)CC1 (stereo not drawn) [I-17],0.386 µM
15,CCN1CCN(c2ccc3c(n2)c(-c2cncnc2)cn3-c2c(F)ccc(NS(=O)(=O)CC3CC3)c2F)CC1 [I-18],0.09 µM
16,CN(c1ncc2c(n1)c(-c1cncnc1)cn2-c1c(F)ccc(NS(=O)(=O)CC2CC2)c1F)C1CCNCC1 [I-19],0.11 µM
17,CN1CCN(c2ccc3c(n2)c(-c2cncnc2)cn3-c2c(F)ccc(NS(=O)(=O)CC3CC3)c2F)CC1 [I-20],0.072 µM
18,CCCS(=O)(=O)Nc1ccc(F)c(-n2cc(-c3cncnc3)c3nc(N4CCN(CC)CC4)ncc32)c1F [I-21],0.089 µM
19,CN(c1ccc2c(n1)c(-c1cncnc1)cn2-c1c(F)ccc(NS(=O)(=O)C2CC2)c1F)C1CCN(C(=O)OC(C)(C)C)CC1 [I-22],0.112 µM
20,CCCS(=O)(=O)Nc1ccc(F)c(-n2cc(-c3cncnc3)c3nc(N4CCN(CC)CC4)ccc32)c1F [I-23],0.04 µM
21,CCCS(=O)(=O)Nc1ccc(F)c(-n2cc(-c3cncnc3)c3nc(N4CCN(C)CC4)ncc32)c1F [I-24],0.068 µM
22,O=S(=O)(CC1CC1)Nc1ccc(F)c(-n2cc(-c3cncnc3)c3nc(N4CCNCC4)ccc32)c1F [I-25],0.027 µM

row,SMILES,EC50
1,CCCS(=O)(=O)Nc1ccc(F)c(-n2cc(-c3cncnc3)c3nc(N4CCNCC4)ncc32)c1F [I-26],0.073 µM
2,CCCS(=O)(=O)Nc1ccc(F)c(-n2cc(-c3cncnc3)c3nc(N4CCN(CC5CC5)CC4)ncc32)c1F [I-27],0.054 µM
3,CN(c1ncc2c(n1)c(-c1cncnc1)cn2-c1c(F)ccc(NS(=O)(=O)CC2CC2)c1F)C1CCN(CC2CC2)CC1 [I-28],0.007 µM
4,CCCS(=O)(=O)Nc1ccc(F)c(-n2cc(-c3cncnc3)c3nc(N4CCN(C5CC5)CC4)ccc32)c1F [I-29],0.041 µM
5,CCCS(=O)(=O)Nc1ccc(F)c(-n2cc(-c3cncnc3)c3nc(N(C)C4CCN(C)CC4)ccc32)c1F [I-30],0.002 µM
6,CCCS(=O)(=O)Nc1ccc(F)c(-n2cc(-c3cncnc3)c3nc(N4CCN(CC5CC5)CC4)ccc32)c1F [I-31],0.031 µM
7,CN1CCC(N(C)c2ccc3c(n2)c(-c2cncnc2)cn3-c2c(F)ccc(NS(=O)(=O)C3CC3)c2F)CC1 [I-32],0.002 µM
8,CCCS(=O)(=O)Nc1ccc(F)c(-n2cc(-c3cncnc3)c3nc(N4CCNCC4)ccc32)c1F [I-33],0.014 µM
9,CCCN1CCC(N(C)c2ccc3c(n2)c(-c2cncnc2)cn3-c2c(F)ccc(NS(=O)(=O)CCC)c2F)CC1 [I-34],0.002 µM
10,CCCS(=O)(=O)Nc1ccc(F)c(-n2cc(-c3cncnc3)c3nc(N(C)C4CCN(CCOC)CC4)c(F)cc32)c1F [I-35],0.006 µM
11,CCCS(=O)(=O)Nc1ccc(F)c(-n2cc(-c3cncnc3)c3nc(N(C)C4CCN(CC(C)(C)O)CC4)c(F)cc32)c1F [I-36],0.007 µM
12,CCCS(=O)(=O)Nc1ccc(F)c(-n2cc(-c3cncnc3)c3nc(N(C)C4CCN(CC5CC5)CC4)ccc32)c1F [I-37],0.002 µM
13,CCCS(=O)(=O)Nc1ccc(F)c(-n2cc(-c3cncnc3)c3nc(N(C)C4CCN(C5COC5)CC4)ncc32)c1F [I-38],0.005 µM
14,CN(c1ncc2c(n1)c(-c1cncnc1)cn2-c1c(F)ccc(NS(=O)(=O)c2ccoc2)c1F)C1CCN(CC2CC2)CC1 [I-39],0.00047 µM
15,CCCS(=O)(=O)Nc1ccc(F)c(-n2cc(-c3cncnc3)c3nc(N(C)C4CCN(CC)CC4)c(F)cc32)c1F [I-40],0.003 µM
16,[2H]C([2H])([2H])N(c1ccc2c(n1)c(-c1cncnc1)cn2-c1c(F)ccc(NS(=O)(=O)CCC)c1F)C1CCN(CC)CC1 [I-41],0.001 µM
17,CCCS(=O)(=O)Nc1ccc(F)c(-n2cc(-c3cncnc3)c3nc(N(C)C4CCN(CC)CC4)ccc32)c1F [I-42],0.00084 µM
18,CCCS(=O)(=O)Nc1ccc(F)c(-n2cc(-c3cncnc3)c3nc(N(C)C4CCN(CC5CC5)CC4)ncc32)c1F [I-43],0.005 µM
19,[2H]C([2H])([2H])N(c1ccc2c(n1)c(-c1cncnc1)cn2-c1c(F)ccc(NS(=O)(=O)CCC)c1F)C1CCN(C([2H])([2H])C([2H])([2H])[2H])CC1 [I-44],0.001 µM
20,CCCS(=O)(=O)Nc1ccc(F)c(-n2cc(-c3cncnc3)c3nc(N(C)C4CCN(CC(C)(C)O)CC4)ccc32)c1F [I-45],0.005 µM
21,[2H]C([2H])([2H])C([2H])([2H])N1CCC(N(C)c2ccc3c(n2)c(-c2cncnc2)cn3-c2c(F)ccc(NS(=O)(=O)CCC)c2F)CC1 [I-46],0.003 µM
22,CCCS(=O)(=O)Nc1ccc(F)c(-n2cc(-c3cncnc3)c3nc(N(C)C4CCN(CC)CC4)ccc32)c1Cl [I-47],0.002 µM

# Reference: patent publication US8889684B2, “Azaindolylphenyl sulfonamides as serine/threonine kinase inhibitors” (Boehringer Ingelheim International GmbH, priority 2011, dated 2014)
